Measurements published in US20090047246A1, “NOVEL INHIBITORS OF HEPATITIS C VIRUS REPLICATION” (InterMune, Inc., priority 2007, published 2009).
Read-outs that look alike come from different tables or passages of the source. Each block holds one compound with its values, some of them ahead of it.

Molecular target: T1, HCV NS3 helicase (Hepatitis C virus genotype 1b, UniProt P26663)
T1 construct: full-length NS3 (1-631), purified at Array BioPharma
Test: HCV Helicase Prompt FRET Assay (Example A)
Assay type: biochemical
Details: read-out: IC50 Activity
Summary of the method: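 Full-length NS3 (1-631), 5 or 6 nM, preincubated 5 min with compound, then unwinds 50 nM FAM/BHQ-1 duplex substrate with 250 nM capture strand and 300 μM ATP in 25 mM MOPS pH 7.0, 1.5 mM MgCl2, 0.005% Triton X-100, 2% DMSO. Fluorescence (485/535 nm) followed ~30 min at room temperature; IC50 from initial rates by 4- or 5-parameter fit.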

[1] = Table 32, compounds made using Schemes 46-49
[2] = Table 33, compounds made using Scheme 50
[3] = Table 34, compounds made using Schemes 51-52
[4] = Table 35, compounds made using Scheme 53
[5] = Table 36, compounds made using Scheme 54
[6] = Table 38, compounds made using Scheme 56, Scheme 57 and Scheme 61
[7] = HCV NS3 helicase, tables do not say whether Example A or Example B assay

T1 sequence (P26663 1027-1657): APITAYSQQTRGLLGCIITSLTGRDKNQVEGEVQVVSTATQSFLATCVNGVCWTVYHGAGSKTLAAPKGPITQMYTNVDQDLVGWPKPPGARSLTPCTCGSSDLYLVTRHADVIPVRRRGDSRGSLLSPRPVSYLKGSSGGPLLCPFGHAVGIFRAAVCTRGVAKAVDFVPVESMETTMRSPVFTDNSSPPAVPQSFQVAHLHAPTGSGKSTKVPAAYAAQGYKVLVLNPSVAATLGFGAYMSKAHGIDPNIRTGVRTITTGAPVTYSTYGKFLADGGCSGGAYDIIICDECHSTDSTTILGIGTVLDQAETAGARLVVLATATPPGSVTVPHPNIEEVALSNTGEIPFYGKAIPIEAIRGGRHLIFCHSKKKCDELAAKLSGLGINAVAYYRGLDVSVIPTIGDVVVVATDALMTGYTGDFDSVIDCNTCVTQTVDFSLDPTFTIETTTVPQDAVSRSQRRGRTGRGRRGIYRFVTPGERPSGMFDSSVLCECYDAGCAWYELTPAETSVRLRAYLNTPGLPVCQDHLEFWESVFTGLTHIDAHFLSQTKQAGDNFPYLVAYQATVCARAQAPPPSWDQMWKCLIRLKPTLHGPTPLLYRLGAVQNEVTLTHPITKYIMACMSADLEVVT

IC50 [4]: 10 to 50 µM
SMILES: Nc1cc(N)cc(-c2ccc3c(CC(=O)O)cn(Cc4cccc5sc(O)nc45)c3c2)c1 [Example 708]

IC50 [4]: 10 to 50 µM
SMILES: Nc1cc(N)cc(-c2ccc3c(CC(=O)O)cn(Cc4cccc(-c5cccc(Cl)c5)c4)c3c2)c1 [Example 709]

IC50 [4]: < 10 µM
SMILES: Nc1cc(N)cc(-c2ccc3c(CC(=O)O)cn(Cc4cc5cc(Cl)ccc5s4)c3c2)c1 [Example 710]

IC50 [5]: 10 to 50 µM
SMILES: CCOC(=O)Cc1cn(Cc2c(-c3ccccc3)sc3ccccc23)c2cc(-c3cc([N+](=O)[O-])cc([N+](=O)[O-])c3)ccc12 [Example 711]

IC50 [5]: < 10 µM
SMILES: CCOC(=O)Cc1cn(Cc2c(-c3ccccc3)sc3ccccc23)c2cc(-c3cc(N)cc(N)c3)ccc12 [Example 712]

IC50 [5]: < 10 µM
SMILES: Nc1cc(N)cc(-c2ccc3c(CC(=O)O)cn(Cc4c(-c5ccccc5)sc5ccccc45)c3c2)c1 [Example 713]

IC50 [5]: 10 to 50 µM
SMILES: CCOC(=O)Cc1cn(Cc2c(-c3cccc(Cl)c3)sc3ccccc23)c2cc(-c3cc([N+](=O)[O-])cc([N+](=O)[O-])c3)ccc12 [Example 714]

IC50 [5]: < 10 µM
SMILES: Nc1cc(N)cc(-c2ccc3c(CC(=O)O)cn(Cc4c(-c5cccc(Cl)c5)sc5ccccc45)c3c2)c1 [Example 715]

IC50 [5]: 10 to 50 µM
SMILES: CCOC(=O)Cc1cn(Cc2csc3ccc(OC(F)(F)F)cc23)c2cc(-c3cc([N+](=O)[O-])cc([N+](=O)[O-])c3)ccc12 [Example 717]

IC50 [5]: 10 to 50 µM
SMILES: CCOC(=O)Cc1cn(Cc2csc3ccc(OC(F)(F)F)cc23)c2cc(-c3cc(N)cc(N)c3)ccc12 [Example 718]

IC50 [5]: 10 to 50 µM
SMILES: Nc1cc(N)cc(-c2ccc3c(CC(=O)O)cn(Cc4csc5ccc(OC(F)(F)F)cc45)c3c2)c1 [Example 719]

IC50 [5]: > 50 µM
SMILES: CCOC(=O)Cc1cn(Cc2c(CC)sc3ccc(Cl)cc23)c2cc(-c3cc([N+](=O)[O-])cc([N+](=O)[O-])c3)ccc12 [Example 720]

IC50 [5]: < 10 µM
SMILES: CCc1sc2ccc(Cl)cc2c1Cn1cc(CC(=O)O)c2ccc(-c3cc(N)cc(N)c3)cc21 [Example 721]

IC50 [5]: 10 to 50 µM
SMILES: COc1cc(Cl)cc2c(Cn3cc(CC(=O)O)c4ccc(-c5cc(N)cc(N)c5)cc43)csc12 [Example 722]

IC50 [5]: < 10 µM
SMILES: Nc1cc(N)cc(-c2ccc3c(CC(=O)O)cn(Cc4csc5cc(Cl)c(F)cc45)c3c2)c1 [Example 723]

IC50 [5]: 10 to 50 µM
SMILES: Nc1cc(N)cc(-c2ccc3c(CC(=O)O)cn(Cc4csc5c(Cl)c(Cl)ccc45)c3c2)c1 [Example 724]

IC50 [5]: 10 to 50 µM
SMILES: Nc1cc(N)cc(-c2ccc3c(CC(=O)O)cn(Cc4csc5c(Cl)cccc45)c3c2)c1 [Example 725]

IC50 [5]: < 10 µM
SMILES: Nc1cc(N)cc(-c2ccc3c(CC(=O)O)cn(Cc4csc5c(Cl)cc(F)cc45)c3c2)c1 [Example 726]

IC50 [5]: < 10 µM
SMILES: Nc1cc(N)cc(-c2ccc3c(CC(=O)O)cn(Cc4csc5cccc(Cl)c45)c3c2)c1 [Example 727]

IC50 [5]: < 10 µM
SMILES: Nc1cc(N)cc(-c2ccc3c(CC(=O)O)cn(Cc4csc5cc(Cl)ccc45)c3c2)c1 [Example 728]

IC50 [6]: 10 to 50 µM
SMILES: CN(C=O)c1cc(Cl)cc2c(Cn3cc(CC(=O)O)c4ccc(-c5cc(N)cc(N)c5)cc43)csc12 [Example 729]

IC50 [6]: 10 to 50 µM
SMILES: CN(c1cc(Cl)cc2c(Cn3cc(CC(=O)O)c4ccc(-c5cc(N)cc(N)c5)cc43)csc12)S(C)(=O)=O [Example 730]

IC50 [6]: < 10 µM
SMILES: CCNc1cc(Cl)cc2c(Cn3cc(CC(=O)O)c4ccc(-c5cc(N)cc(N)c5)cc43)csc12 [Example 731]

IC50 [6]: < 10 µM
SMILES: CCN(C)c1cc(Cl)cc2c(Cn3cc(CC(=O)O)c4ccc(-c5cc(N)cc(N)c5)cc43)csc12 [Example 732]

IC50 [4]: 10 to 50 µM
SMILES: Nc1cc(N)cc(-c2ccc3c(CC(=O)O)cn(Cc4csc5ccc(Br)cc45)c3c2)c1 [Example 734]

IC50 [5]: > 50 µM
SMILES: Nc1cc(N)cc(-c2ccc3c(CC(=O)O)cn(Cc4nc5ccccc5s4)c3c2)c1 [Example 735]

IC50 [7]: 10 to 50 µM
SMILES: CC(=O)c1c(CC(=O)O)c2ccccc2n1-c1ccc(N(C)Cc2ccccc2)cc1 [Example 737]

IC50 [7]: 10 to 50 µM
SMILES: CN(Cc1ccccc1)c1ccc(-n2c(C(=O)c3ccc(-c4ccc(Cl)c(Cl)c4)cc3)c(CC(=O)O)c3ccccc32)cc1 [Example 738]

The remaining lines, values behind:

SMILES: Nc1nnc(-c2ccc3c(CC(=O)O)cn(Cc4csc5ccc(Cl)cc45)c3c2)s1 [Example 660]
IC50 [1]: 10 to 50 µM

SMILES: NC(=O)c1sccc1-c1ccc2c(CC(=O)O)cn(Cc3csc4ccc(Cl)cc34)c2c1 [Example 661]
IC50 [1]: 10 to 50 µM

SMILES: O=C(O)Cc1cn(Cc2csc3ccc(Cl)cc23)c2cc(-c3c[nH]c(=O)[nH]c3=O)ccc12 [Example 662]
IC50 [1]: 10 to 50 µM

SMILES: N#Cc1ccc2c(CC(=O)O)cn(Cc3csc4ccc(Cl)cc34)c2c1 [Example 663]
IC50 [1]: 10 to 50 µM

SMILES: CC(C)c1ccc(Cn2c(C#N)c(CC(=O)O)c3ccccc32)cc1 [Example 664]
IC50 [1]: 10 to 50 µM

SMILES: CC(C)c1ccc(Cn2c(C(N)=O)c(CC(=O)O)c3ccccc32)cc1 [Example 665]
IC50 [1]: 10 to 50 µM

SMILES: Nc1cc(-c2ccc3c(CC(=O)O)cn(Cc4csc5ccc(Cl)cc45)c3c2)ncn1 [Example 666]
IC50 [2]: 10 to 50 µM

SMILES: Nc1ccnc(-c2ccc3c(CC(=O)O)cn(Cc4csc5ccc(Cl)cc45)c3c2)n1 [Example 667]
IC50 [2]: 10 to 50 µM

SMILES: O=C(O)Cc1cn(Cc2csc3ccc(Cl)cc23)c2cc(-c3ccc4nc[nH]c4c3)ccc12 [Example 668]
IC50 [2]: 10 to 50 µM

SMILES: O=C(O)Cc1cn(Cc2csc3ccc(Cl)cc23)c2cc(-c3ccc4nn[nH]c4c3)ccc12 [Example 669]
IC50 [2]: 10 to 50 µM

SMILES: Cc1cc([N+](=O)[O-])ccc1-n1cc(C(NC(=O)c2ccccc2)C(=O)O)c2ccccc21 (stereo not drawn) [Example 670]
IC50 [3]: 10 to 50 µM

SMILES: Cc1cc([N+](=O)[O-])ccc1-n1cc(C(NC(=O)C2CCCN2C(=O)OC(C)(C)C)C(=O)O)c2ccccc21 (stereo not drawn) [Example 671]
IC50 [3]: 10 to 50 µM

SMILES: Cc1cc([N+](=O)[O-])ccc1-n1cc(C(NC(=O)C2CCCN2)C(=O)O)c2ccccc21 (stereo not drawn) [Example 672]
IC50 [3]: > 50 µM

SMILES: Cc1cc([N+](=O)[O-])ccc1-n1cc(C(NC(=O)C2CCN(C(=O)OC(C)(C)C)CC2)C(=O)O)c2ccccc21 (stereo not drawn) [Example 673]
IC50 [3]: 10 to 50 µM

SMILES: Cc1cc([N+](=O)[O-])ccc1-n1cc(C(NC(=O)C2CCNCC2)C(=O)O)c2ccccc21 (stereo not drawn) [Example 674]
IC50 [3]: > 50 µM

SMILES: Cn1cc(CC(=O)O)c2ccc(-c3cc(N)cc(N)c3)cc21 [Example 675]
IC50 [3]: > 50 µM

SMILES: Nc1cc(N)cc(-c2ccc3c(CC(=O)O)cn(Cc4ccccc4)c3c2)c1 [Example 676]
IC50 [3]: 10 to 50 µM

SMILES: CC(C)c1ccc(Cn2cc(CC(=O)NO)c3ccccc32)cc1 [Example 677]
IC50 [3]: 10 to 50 µM

SMILES: O=C(O)Cc1cn(Cc2csc3ccccc23)c2ccc(Br)cc12 [Example 678]
IC50 [3]: 10 to 50 µM

SMILES: Nc1cc(N)cc(-c2ccc3c(CC(=O)O)cn(Cc4csc5ccccc45)c3c2)c1 [Example 679]
IC50 [3]: < 10 µM

SMILES: Nc1cc(N)cc(-c2ccc3c(CC(=O)NOCc4ccccc4)cn(Cc4csc5ccc(Cl)cc45)c3c2)c1 [Example 680]
IC50 [3]: < 10 µM

SMILES: CC(C)(C)ONC(=O)Cc1cn(Cc2csc3ccc(Cl)cc23)c2cc(-c3cc(N)cc(N)c3)ccc12 [Example 683]
IC50 [3]: 10 to 50 µM

SMILES: CC(C)c1ccc(Cn2cc(C(Cc3ccccc3)C(=O)NO)c3cc(Br)ccc32)cc1 (stereo not drawn) [Example 684]
IC50 [3]: < 10 µM

SMILES: CC(C)c1ccc(CC(C(=O)O)c2cn(Cc3ccc(C(C)C)cc3)c3ccc(Br)cc23)cc1 (stereo not drawn) [Example 685]
IC50 [3]: < 10 µM

SMILES: CC(C)c1ccc(Cn2cc(C(Cc3ccccc3)C(=O)NS(=O)(=O)C3CC3)c3cc(Br)ccc32)cc1 (stereo not drawn) [Example 686]
IC50 [3]: < 10 µM

SMILES: Nc1cc(-c2ccc3c(CC(=O)NS(=O)(=O)C4CC4)cn(Cc4csc5ccc(Cl)cc45)c3c2)cc([N+](=O)[O-])c1 [Example 687]
IC50 [3]: < 10 µM

SMILES: Nc1cc(N)cc(-c2ccc3c(CC(=O)NS(=O)(=O)C4CC4)cn(Cc4csc5ccc(Cl)cc45)c3c2)c1 [Example 688]
IC50 [3]: < 10 µM

SMILES: Nc1cc(-c2ccc3c(CC(=O)NOCc4ccccc4)cn(Cc4csc5ccc(Cl)cc45)c3c2)cc([N+](=O)[O-])c1 [Example 689]
IC50 [3]: > 50 µM

SMILES: Nc1cc(-c2ccc3c(CC(=O)NOC4CCCCO4)cn(Cc4csc5ccc(Cl)cc45)c3c2)cc([N+](=O)[O-])c1 (stereo not drawn) [Example 690]
IC50 [3]: > 50 µM

SMILES: Nc1cc(-c2ccc3c(CC(=O)NO)cn(Cc4csc5ccc(Cl)cc45)c3c2)cc([N+](=O)[O-])c1 [Example 691]
IC50 [3]: 10 to 50 µM

SMILES: Nc1cc(N)cc(-c2ccc3c(CC(=O)NO)cn(Cc4csc5ccc(Cl)cc45)c3c2)c1 [Example 692]
IC50 [3]: 10 to 50 µM

SMILES: COC(=O)C(=O)c1cn(Cc2csc3ccc(Cl)cc23)c2cc(Br)ccc12 [Example 693]
IC50 [3]: > 50 µM

SMILES: OCCc1cn(Cc2csc3ccc(Cl)cc23)c2cc(Br)ccc12 [Example 694]
IC50 [3]: > 50 µM

SMILES: CC(=O)OC1CCCN(c2ccc3ccn(Cc4csc5ccc(Cl)cc45)c3c2)C1 (stereo not drawn) [Example 695]
IC50 [3]: 10 to 50 µM

SMILES: COC(=O)C(=O)c1cn(Cc2csc3ccc(Cl)cc23)c2cc(N3CCCC(OC(C)=O)C3)ccc12 (stereo not drawn) [Example 696]
IC50 [3]: 10 to 50 µM

SMILES: COC(=O)Cc1cn(Cc2csc3ccc(Cl)cc23)c2cc(N3CCCC(OC(C)=O)C3)ccc12 (stereo not drawn) [Example 697]
IC50 [3]: > 50 µM

SMILES: Nc1cc(N)cc(-c2ccc3c(CC(=O)O)cn(Cc4csc5ccc(N)cc45)c3c2)c1 [Example 702]
IC50 [4]: 10 to 50 µM

SMILES: N#Cc1ccc2scc(Cn3cc(CC(=O)O)c4ccc(-c5cc(N)cc(N)c5)cc43)c2c1 [Example 703]
IC50 [4]: 10 to 50 µM

SMILES: Cc1ccc2c(Cn3cc(CC(=O)O)c4ccc(-c5cc(N)cc(N)c5)cc43)cccc2n1 [Example 704]
IC50 [4]: > 50 µM

SMILES: Nc1cc(N)cc(-c2ccc3c(CC(=O)O)cn(Cc4csc5ccc(F)cc45)c3c2)c1 [Example 705]
IC50 [4]: < 10 µM

SMILES: Cc1nn(-c2ccccc2)nc1Cn1cc(CC(=O)O)c2ccc(-c3cc(N)cc(N)c3)cc21 [Example 706]
IC50 [4]: 10 to 50 µM
